Measured values from PubChem BioAssay (NCI).
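GI50: concentration for 50% inhibition of growth. TGI is the concentration that stops growth completely.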

Columns and labels:
Experiment in all cases: NCI anticancer screen, dose series, 384-well format
A549 NSCLC = tested on: A549 NSCLC
BT-549 breast = tested on: BT-549 breast
CCRF-CEM leukemia = tested on: CCRF-CEM leukemia
DU-145 prostate = tested on: DU-145 prostate
EKVX NSCLC = tested on: EKVX NSCLC
HCC-2998 colon = tested on: HCC-2998 colon
HCT-15 colon = tested on: HCT-15 colon
HL-60(TB) leukemia = tested on: HL-60(TB) leukemia
HOP-62 NSCLC = tested on: HOP-62 NSCLC
HOP-92 NSCLC = tested on: HOP-92 NSCLC
HS 578T breast = tested on: HS 578T breast
HT29 colon = tested on: HT29 colon
IGROV1 ovarian = tested on: IGROV1 ovarian
KM12 colon = tested on: KM12 colon
M14 melanoma = tested on: M14 melanoma
MALME-3M melanoma = tested on: MALME-3M melanoma
MDA-MB-231 breast = tested on: MDA-MB-231 breast
MDA-MB-435 melanoma = tested on: MDA-MB-435 melanoma
MOLT-4 leukemia = tested on: MOLT-4 leukemia
NCI-H226 lung = tested on: NCI-H226 lung
NCI-H23 lung = tested on: NCI-H23 lung
NCI-H322M lung = tested on: NCI-H322M lung
NCI-H460 NSCLC = tested on: NCI-H460 NSCLC
OVCAR-3 ovarian = tested on: OVCAR-3 ovarian
OVCAR-8 ovarian = tested on: OVCAR-8 ovarian
PC-3 prostate = tested on: PC-3 prostate
RPMI-8226 leukemia = tested on: RPMI-8226 leukemia
RXF 393 renal = tested on: RXF 393 renal
SF-268 CNS = tested on: SF-268 CNS
SF-539 CNS = tested on: SF-539 CNS
SK-MEL-28 melanoma = tested on: SK-MEL-28 melanoma
SK-MEL-5 melanoma = tested on: SK-MEL-5 melanoma
SK-OV-3 ovarian = tested on: SK-OV-3 ovarian
SN12C renal = tested on: SN12C renal
SNB-19 CNS = tested on: SNB-19 CNS
SNB-75 CNS = tested on: SNB-75 CNS
SR leukemia = tested on: SR leukemia
T-47D breast = tested on: T-47D breast
TK-10 renal = tested on: TK-10 renal
U251 glioblastoma = tested on: U251 glioblastoma
UACC-257 melanoma = tested on: UACC-257 melanoma
UACC-62 melanoma = tested on: UACC-62 melanoma

COc1ccc(F)c(F)c1C(=O)c1cnc(NC2CCN(S(C)(=O)=O)CC2)nc1N
GI50 (A549 NSCLC): 0.169 µM
TGI (A549 NSCLC): > 100 µM
GI50 (BT-549 breast): 0.0441 µM
TGI (BT-549 breast): 0.434 µM
GI50 (CCRF-CEM leukemia): 0.072 µM
TGI (CCRF-CEM leukemia): 0.234 µM
GI50 (DU-145 prostate): 0.211 µM
TGI (DU-145 prostate): 0.977 µM
GI50 (EKVX NSCLC): 0.424 µM
TGI (EKVX NSCLC): 3.16 µM
GI50 (HCC-2998 colon): 0.289 µM
TGI (HCC-2998 colon): 1.91 µM
GI50 (HCT-15 colon): 0.187 µM
TGI (HCT-15 colon): > 100 µM
GI50 (HL-60(TB) leukemia): 0.0158 µM
TGI (HL-60(TB) leukemia): 0.125 µM
GI50 (HOP-62 NSCLC): 0.135 µM
TGI (HOP-62 NSCLC): 0.466 µM
GI50 (HOP-92 NSCLC): 0.31 µM
TGI (HOP-92 NSCLC): > 100 µM
GI50 (HS 578T breast): 0.206 µM
TGI (HS 578T breast): 0.492 µM
GI50 (HT29 colon): 0.206 µM
TGI (HT29 colon): 2.05 µM
GI50 (IGROV1 ovarian): 0.222 µM
TGI (IGROV1 ovarian): > 100 µM
GI50 (KM12 colon): 0.108 µM
TGI (KM12 colon): 0.456 µM
GI50 (M14 melanoma): 0.346 µM
TGI (M14 melanoma): 1.64 µM
GI50 (MALME-3M melanoma): 0.379 µM
TGI (MALME-3M melanoma): 2 µM
GI50 (MDA-MB-231 breast): 0.201 µM
TGI (MDA-MB-231 breast): 3.7 µM
GI50 (MDA-MB-435 melanoma): 0.251 µM
TGI (MDA-MB-435 melanoma): 1.6 µM
GI50 (MOLT-4 leukemia): 0.0912 µM
TGI (MOLT-4 leukemia): 0.396 µM
GI50 (NCI-H226 lung): 0.164 µM
TGI (NCI-H226 lung): 0.753 µM
GI50 (NCI-H23 lung): 0.14 µM
TGI (NCI-H23 lung): 0.774 µM
GI50 (NCI-H322M lung): 0.215 µM
TGI (NCI-H322M lung): 0.602 µM
GI50 (NCI-H460 NSCLC): 0.0302 µM
TGI (NCI-H460 NSCLC): 0.162 µM
GI50 (OVCAR-3 ovarian): 0.305 µM
TGI (OVCAR-3 ovarian): 1.45 µM
GI50 (OVCAR-8 ovarian): 0.144 µM
TGI (OVCAR-8 ovarian): 0.917 µM
GI50 (PC-3 prostate): 0.284 µM
TGI (PC-3 prostate): 2.13 µM
GI50 (RPMI-8226 leukemia): 0.0209 µM
TGI (RPMI-8226 leukemia): 0.124 µM
GI50 (RXF 393 renal): 0.159 µM
TGI (RXF 393 renal): 0.345 µM
GI50 (SF-268 CNS): 0.129 µM
TGI (SF-268 CNS): 0.361 µM
GI50 (SF-539 CNS): 0.137 µM
TGI (SF-539 CNS): 0.501 µM
GI50 (SK-MEL-28 melanoma): 0.161 µM
TGI (SK-MEL-28 melanoma): 1.58 µM
GI50 (SK-MEL-5 melanoma): 0.082 µM
TGI (SK-MEL-5 melanoma): 0.609 µM
GI50 (SK-OV-3 ovarian): 1.03 µM
TGI (SK-OV-3 ovarian): > 100 µM
GI50 (SN12C renal): 0.139 µM
TGI (SN12C renal): 0.681 µM
GI50 (SNB-19 CNS): 0.348 µM
TGI (SNB-19 CNS): > 100 µM
GI50 (SNB-75 CNS): 0.0864 µM
TGI (SNB-75 CNS): 1.73 µM
GI50 (SR leukemia): 0.0157 µM
TGI (SR leukemia): 0.039 µM
GI50 (T-47D breast): 0.306 µM
TGI (T-47D breast): > 100 µM
GI50 (TK-10 renal): 0.304 µM
TGI (TK-10 renal): > 100 µM
GI50 (U251 glioblastoma): 0.278 µM
TGI (U251 glioblastoma): > 100 µM
GI50 (UACC-257 melanoma): 1.03 µM
TGI (UACC-257 melanoma): 2.62 µM
GI50 (UACC-62 melanoma): 0.138 µM
TGI (UACC-62 melanoma): 0.453 µM
